In assay [1] the test system is G55T2. Description: Cell cycle arrest in human G55T2 cells assessed as accumulation in G0/G1 phase at 3 uM incubated for 72 hrs by propidium iodide based flow cytometry (reference value: 49.9 %). The class given is functional.
Another assay deals with CHP-134. Description: Antiproliferative activity against human CHP134 cells assessed as reduction in cell viability incubated for 72 hrs by cell-titer Glo assay. The class given is functional, cell-based. The following applies: CHP-134, 72 h.
Assay [2] relates to G55T2. Description: Cell cycle arrest in human G55T2 cells assessed as accumulation in S phase at 3 uM incubated for 72 hrs by propidium iodide based flow cytometry (reference value: 14.7 %). The class given is functional. Background: In flow cytometry, cells or beads pass a laser one at a time.
Assay [3] concerns G55T2. Description: Antiproliferative activity against human G55T2 cells assessed as reduction in cell viability incubated for 72 hrs by WST-8 assay. The class given is functional, cell-based. The conditions noted are these: G55T2, 72 h. (In general: Formazan colour is commonly taken as a measure of viable cells.)
Assay [4] deals with G55T2. Description: Cell cycle arrest in human G55T2 cells assessed as accumulation in subG0 phase at 1 uM incubated for 72 hrs by propidium iodide based flow cytometry (reference value: 4.5 %). The class given is functional.
Assay [5] relates to G55T2. Description: Cell cycle arrest in human G55T2 cells assessed as accumulation in G0/G1 phase at 1 uM incubated for 72 hrs by propidium iodide based flow cytometry (reference value: 49.9 %). The class given is functional.
Assay [6] deals with G55T2. Description: Cell cycle arrest in human G55T2 cells assessed as accumulation in G2/M phase at 3 uM incubated for 72 hrs by propidium iodide based flow cytometry (reference value: 26.8 %). The class given is functional.
The test system of assay [7] is G55T2. Description: Cell cycle arrest in human G55T2 cells assessed as accumulation in subG0 phase at 3 uM incubated for 72 hrs by propidium iodide based flow cytometry (reference value: 4.5 %). The class given is functional.
A further assay concerns SK-N-AS. Description: Antiproliferative activity against human SK-N-AS cells assessed as reduction in cell viability incubated for 72 hrs by cell-titer Glo assay. It counts as functional, cell-based.
In assay [8] the test system is G55T2. Description: Cell cycle arrest in human G55T2 cells assessed as accumulation in G2/M phase at 1 uM incubated for 72 hrs by propidium iodide based flow cytometry (reference value: 26.8 %). It counts as functional.
Assay [9] addresses T1, Protein deacetylase HDAC6 (Homo sapiens, UniProt Q9UBN7).
T1 sequence (Q9UBN7 whole entry): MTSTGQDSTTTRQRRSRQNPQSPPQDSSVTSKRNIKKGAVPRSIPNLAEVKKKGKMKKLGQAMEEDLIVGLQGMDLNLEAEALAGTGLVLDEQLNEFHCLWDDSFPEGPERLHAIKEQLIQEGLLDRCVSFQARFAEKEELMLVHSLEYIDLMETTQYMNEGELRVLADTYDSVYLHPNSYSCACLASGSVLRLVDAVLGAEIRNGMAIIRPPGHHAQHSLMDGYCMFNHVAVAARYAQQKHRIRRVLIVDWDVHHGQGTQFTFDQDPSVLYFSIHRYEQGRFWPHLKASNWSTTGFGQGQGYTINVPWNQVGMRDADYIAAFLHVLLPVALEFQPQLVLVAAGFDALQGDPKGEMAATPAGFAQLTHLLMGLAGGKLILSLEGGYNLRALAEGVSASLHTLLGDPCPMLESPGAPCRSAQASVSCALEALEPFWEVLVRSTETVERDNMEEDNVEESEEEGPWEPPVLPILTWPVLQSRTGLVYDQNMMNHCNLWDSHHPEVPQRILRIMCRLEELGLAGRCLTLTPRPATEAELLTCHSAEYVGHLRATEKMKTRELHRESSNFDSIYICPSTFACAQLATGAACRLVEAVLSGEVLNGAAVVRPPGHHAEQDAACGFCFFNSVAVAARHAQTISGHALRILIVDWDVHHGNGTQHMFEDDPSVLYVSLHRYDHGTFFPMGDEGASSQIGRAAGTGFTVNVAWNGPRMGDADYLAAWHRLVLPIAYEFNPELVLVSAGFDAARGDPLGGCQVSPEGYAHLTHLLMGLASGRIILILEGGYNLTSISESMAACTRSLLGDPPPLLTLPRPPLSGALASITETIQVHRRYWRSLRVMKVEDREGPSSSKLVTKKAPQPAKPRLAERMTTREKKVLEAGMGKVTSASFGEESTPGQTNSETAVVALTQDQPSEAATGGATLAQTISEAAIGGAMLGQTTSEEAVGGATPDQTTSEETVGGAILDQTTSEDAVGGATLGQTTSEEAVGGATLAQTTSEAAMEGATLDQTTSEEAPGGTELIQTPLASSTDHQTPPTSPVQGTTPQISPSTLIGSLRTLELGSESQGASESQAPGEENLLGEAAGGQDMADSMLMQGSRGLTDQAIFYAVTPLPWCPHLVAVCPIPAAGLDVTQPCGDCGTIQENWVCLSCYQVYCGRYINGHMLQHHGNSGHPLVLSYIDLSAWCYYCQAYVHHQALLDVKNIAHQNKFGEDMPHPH
Description: Inhibition of recombinant full length N-terminal GST-tagged human HDAC6 expressed in baculovirus infected Sf9 cells using Z-Lys(Ac)-AMC as substrate incubated for 90 mins followed by trypsin addition and measured after 30 mins by fluorescence based assay.

The next assay has as its system IMR-32. Description: Antiproliferative activity against human IMR32 cells assessed as reduction in cell viability incubated for 72 hrs by cell-titer Glo assay. The class given is functional, cell-based. The conditions noted are these: IMR-32, 72 h.
In the next assay the test system is NB1. Description: Antiproliferative activity against human NB-1 cells assessed as reduction in cell viability incubated for 72 hrs by cell-titer Glo assay. It counts as functional, cell-based. The conditions noted are these: NB1, 72 h.
For assay [10], the system named is G55T2. Description: Cell cycle arrest in human G55T2 cells assessed as accumulation in S phase at 1 uM incubated for 72 hrs by propidium iodide based flow cytometry (reference value: 14.7 %). The class given is functional.
For another assay, the target named is Histone deacetylase 1 (Homo sapiens, UniProt Q13547). Description: Inhibition of recombinant full length C-terminal FLAG/His-tagged human HDAC1 expressed in baculovirus infected Sf9 cells using Z-Lys(Ac)-AMC as substrate incubated for 90 mins followed by trypsin addition and measured after 30 mins by fluorescence based assay.
Chain of Histone deacetylase 1 (Q13547 whole entry): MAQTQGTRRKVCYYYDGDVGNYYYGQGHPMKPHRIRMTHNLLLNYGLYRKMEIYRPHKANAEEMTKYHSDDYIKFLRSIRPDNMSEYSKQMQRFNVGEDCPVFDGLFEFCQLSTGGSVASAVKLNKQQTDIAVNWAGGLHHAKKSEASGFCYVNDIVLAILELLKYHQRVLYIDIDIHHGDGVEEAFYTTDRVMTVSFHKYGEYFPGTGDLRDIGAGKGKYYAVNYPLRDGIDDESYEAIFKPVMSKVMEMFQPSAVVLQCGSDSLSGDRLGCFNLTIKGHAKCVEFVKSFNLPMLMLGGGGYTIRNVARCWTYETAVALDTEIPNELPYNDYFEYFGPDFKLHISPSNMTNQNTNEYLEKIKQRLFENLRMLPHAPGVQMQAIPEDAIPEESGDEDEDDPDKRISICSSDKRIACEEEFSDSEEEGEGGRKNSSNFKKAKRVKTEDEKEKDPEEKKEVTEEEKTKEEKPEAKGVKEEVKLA

Regarding `Cc1ccc(NC(=O)CCN(Cc2ccc(C(=O)NO)cc2)C(=O)c2cc(C)cc(C)c2)cc1`, the Activity in the assay with G55T2 [1] was found to be 30.2%; in the assay on G55T2 [2], 9.8%; in the assay with G55T2 [4], 3.5%; with G55T2 [5] it was 52.3%; in the assay with G55T2 [6] it was 31.1%; in the assay on G55T2 [7] it was 23.3%. The Activity in the assay with G55T2 [8] amounted to 29.1%; in the assay on G55T2 [10] it was 13.2%. The IC50 in the assay on CHP-134 was found to be 380 nM; in the assay with G55T2 [3], 370 nM; with SK-N-AS it was 220 nM; in assay [9], 31.1 nM; with IMR-32 it was 210 nM; in the assay with NB1 it was 670 nM. In addition, the IC50 at Histone deacetylase 1 was determined as 43 nM.

In the case of `Cc1ccc(CNC(=O)CCN(Cc2ccc(C(=O)NO)cc2)C(=O)c2ccc(N(C)C)cc2)cc1`, the IC50 in the assay on CHP-134 was determined as 420 nM; in the assay with G55T2 [3] it was 430 nM; in the assay with SK-N-AS, 340 nM; in assay [9], 14.4 nM; with IMR-32, 260 nM; in the assay with NB1, 700 nM. The IC50 at Histone deacetylase 1 is 27.8 nM.

Consider `COc1ccc(C(=O)N(CCC(=O)NCc2ccccc2)Cc2ccc(C(=O)NO)cc2)cc1`, for which the IC50 in the assay with CHP-134 came to 1900 nM; with G55T2 [3] it was 3490 nM; in the assay on SK-N-AS, 1740 nM; in assay [9], 25.3 nM; with IMR-32, 1090 nM; with NB1, 2520 nM. For the same compound, the IC50 at Histone deacetylase 1 turned out to be 41.9 nM.

For `CN(C)c1ccc(C(=O)N(CCC(=O)NCc2ccc(Cl)cc2)Cc2ccc(C(=O)NO)cc2)cc1`, the IC50 in the assay with CHP-134 was 610 nM; in the assay with G55T2 [3] it was 460 nM; with SK-N-AS it was 390 nM; in assay [9], 10 nM; in the assay with IMR-32, 310 nM; in the assay on NB1, 850 nM. Further, the IC50 on Histone deacetylase 1 is 21.2 nM.

As to `CN(C)c1ccc(C(=O)N(CCC(=O)NCc2ccccc2)Cc2ccc(C(=O)NO)cc2)cc1`, the IC50 in the assay on CHP-134 came out at 1160 nM; in the assay with G55T2 [3], 1150 nM; with SK-N-AS, 1420 nM; in assay [9] it was 14.8 nM; with IMR-32 it was 840 nM; with NB1, 1720 nM. Besides, the IC50 on Histone deacetylase 1 turned out to be 14.7 nM.

Regarding `O=C(CCN(Cc1ccc(C(=O)NO)cc1)C(=O)c1ccccc1)NCc1ccccc1`, the IC50 in the assay on CHP-134 is 4680 nM; in the assay on G55T2 [3], 5940 nM; in the assay with SK-N-AS, 3310 nM; in [9], 12.5 nM; in the assay with IMR-32 it was 2360 nM; in the assay on NB1, 6660 nM. At Histone deacetylase 1, the IC50 is 134 nM.

Regarding `O=C(NO)c1ccc(CC(=O)N(CCO)c2ccccc2)cc1`, the IC50 at Histone deacetylase 1 is 2100 nM.

On to `COc1cc(OC)cc(C(=O)N(CCC(=O)NCc2ccccc2)Cc2ccc(C(=O)NO)cc2)c1`, for which the IC50 came to 12300 nM in the assay with CHP-134; 14700 nM with G55T2 [3]; 9470 nM in the assay on SK-N-AS; 26 nM in assay [9]; 6040 nM in the assay with IMR-32; 13300 nM with NB1. Moreover, on Histone deacetylase 1, the IC50 was 147 nM.

In the case of `Cc1ccc(C(=O)N(CCC(=O)NCc2ccccc2)Cc2ccc(C(=O)NO)cc2)cc1`, the IC50 in the assay on CHP-134 is 1100 nM; in the assay on G55T2 [3] it was 690 nM; in the assay with SK-N-AS it was 910 nM; in assay [9], 16.7 nM; in the assay on IMR-32 it was 630 nM; in the assay on NB1 it was 1610 nM. In addition, the IC50 at Histone deacetylase 1 worked out at 16.1 nM.

For `Cc1ccc(NC(=O)CCN(Cc2ccc(C(=O)NO)cc2)C(=O)c2ccccc2)cc1`, the IC50 with CHP-134 is 1160 nM; in the assay on G55T2 [3] it was 540 nM; in the assay on SK-N-AS, 620 nM; in [9], 10.7 nM; in the assay on IMR-32, 550 nM; with NB1, 1480 nM. The IC50 on Histone deacetylase 1 came to 27.5 nM.

For `O=C(CCCCCCC(=O)Nc1ccccc1)NO` [VORINOSTAT], the Activity was found to be 31.3% in the assay with G55T2 [1], 8.1% with G55T2 [2], 28.9% in the assay on G55T2 [6] and 24.8% with G55T2 [7].

As for `Cc1ccc(NC(=O)CCN(Cc2ccc(C(=O)NO)cc2)C(=O)c2ccc(N(C)C)cc2)cc1`, the IC50 in the assay on CHP-134 turned out to be 540 nM; with G55T2 [3], 330 nM; in the assay with SK-N-AS it was 400 nM; in assay [9] it was 19.5 nM; with IMR-32 it was 300 nM; in the assay on NB1, 660 nM. At Histone deacetylase 1, the IC50 stood at 12.9 nM.

Turning to `Cc1cc(C)cc(C(=O)N(CCC(=O)NCc2ccccc2)Cc2ccc(C(=O)NO)cc2)c1`, the IC50 is 2030 nM with CHP-134; 4250 nM in the assay with G55T2 [3]; 1860 nM in the assay on SK-N-AS; 20.5 nM in assay [9]; 1390 nM in the assay with IMR-32; 3870 nM in the assay with NB1. The 50% inhibitory concentration (IC50) at Histone deacetylase 1 is 128 nM.

As usually defined, the IC50 is the concentration needed to halve the response being measured.
